pEC50: −log10 of the molar value.
Columns and labels:
human FPR2 = target: T1, human FPR2 (Homo sapiens, UniProt P25090); test: FPR2 cyclic adenosine monophosphate (cAMP) assay; format: cell-based; details: CHO cells overexpressing human FPR2; forskolin 5 μM; inhibition of cAMP production; HTRF; read-out: hFPR2 cAMP2 EC50
T1 sequence (P25090 1-351): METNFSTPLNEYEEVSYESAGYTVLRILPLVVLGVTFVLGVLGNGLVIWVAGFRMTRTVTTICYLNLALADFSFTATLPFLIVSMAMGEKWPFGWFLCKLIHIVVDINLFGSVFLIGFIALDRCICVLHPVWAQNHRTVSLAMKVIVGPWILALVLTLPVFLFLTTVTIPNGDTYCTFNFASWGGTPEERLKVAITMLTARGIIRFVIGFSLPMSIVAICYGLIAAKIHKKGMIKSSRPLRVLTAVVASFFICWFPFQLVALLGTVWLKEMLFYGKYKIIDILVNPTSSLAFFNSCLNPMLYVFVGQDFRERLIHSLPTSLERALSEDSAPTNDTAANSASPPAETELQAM
Description: (§1) N-formyl peptide receptors (FPRs) are a family of chemo attractant receptors that facilitate leukocyte response during inflammation. FPRs belong to the seven-transmembrane G protein-coupled receptor superfamily and are linked to inhibitory G-proteins (Gi). Three family members (FPR1, FPR2 and FPR3) have been identified in humans and are predominantly found in myeloid cells with varied distribution and have also been reported in multiple organs and tissues. After agonist binding, the FPRs activate a multitude of physiological pathways, such as intra cellular signaling transduction, Ca^2+ mobilization and transcription. The family interacts with a diverse set of ligands that includes proteins, polypeptides and fatty acid metabolites which activate both pro-inflammatory and pro-resolution downstream responses. FPR2 and FPR1 Cyclic Adenosine Monophosphate (cAMP) Assays were used to measure the in vitro activity of the compounds disclosed in this application.
(§2) FPR2 and FPR1 Cyclic Adenosine Monophosphate (cAMP) Assays. A mixture of forskolin (5 μM final for FPR2 or 10 μM final for FPR1) and IBMX (200 μM final) were added to 384-well Proxiplates (Perkin-Elmer) pre-dotted with test compounds in DMSO (1% final) at final concentrations in the range of 0.020 nM to 100 μM. Chinese Hamster Ovary cells (CHO) overexpressing human FPR1 or human FPR2 receptors were cultured in F-12 (Ham's) medium supplemented with 10% qualified FBS, 250 μg/mL zeocin and 300 μg/mL hygromycin (Life Technologies). Reactions were initiated by adding 2,000 human FPR2 cells per well or 4,000 human FPR1 cells per well in Dulbecco's PBS (with calcium and magnesium) (Life Technologies) supplemented with 0.1% BSA (Perkin-Elmer). The reaction mixtures were incubated for 30 min at rt. The level of intracellular cAMP was determined using the HTRF HiRange cAMP assay reagent kit (Cisbio) according to manufacturer's instruction. Solutions of cryptate conjugated anti-cAMP and d2 flurorophore-labeled cAMP were made in a supplied lysis buffer separately. Upon completion of the reaction, the cells were lysed with equal volume of the d2-cAMP solution and anti-cAMP solution. […] The potency and activity of a compound to inhibit cAMP production was then determined by fitting to a 4-parametric logistic equation from a plot of cAMP level versus compound concentrations.

human FPR1 = target: T2, human FPR1 (Homo sapiens, UniProt P21462); test: FPR1 cyclic adenosine monophosphate (cAMP) assay; format: cell-based; details: CHO cells overexpressing human FPR1; forskolin 10 μM; inhibition of cAMP production; HTRF; read-out: hFPR1 cAMP2 EC50
T2 sequence (P21462 1-350): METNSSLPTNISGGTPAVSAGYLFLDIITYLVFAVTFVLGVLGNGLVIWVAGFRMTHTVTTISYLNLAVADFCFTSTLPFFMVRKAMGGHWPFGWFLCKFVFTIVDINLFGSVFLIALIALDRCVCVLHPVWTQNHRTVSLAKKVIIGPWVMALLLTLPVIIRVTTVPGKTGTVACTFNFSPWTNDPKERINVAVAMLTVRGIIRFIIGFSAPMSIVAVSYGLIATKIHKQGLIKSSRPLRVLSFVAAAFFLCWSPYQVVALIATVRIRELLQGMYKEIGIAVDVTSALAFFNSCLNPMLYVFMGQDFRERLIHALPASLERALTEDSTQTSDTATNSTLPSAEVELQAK
Description: as §1, §2

Structure (SMILES)	pEC50 (human FPR2)	pEC50 (human FPR1)
COc1cc(F)c(-c2c(NC(=O)c3ccc(OC(F)(F)F)cc3)c(=O)n(-c3ccccc3)n2C)c(F)c1 [Example 4, N-[5-(2,6-difluoro-4-methoxyphenyl)-1-methyl-3-oxo-2-phenyl-2,3-dihydro-1H-pyrazol-4-yl]-4-(trifluoromethoxy)benzamide]	8.10	5.89
COc1cc(F)c(-c2c(NC(=O)c3ccc(C(F)(F)F)cc3)c(=O)n(-c3ccccc3)n2C)c(F)c1 [Example 5, N-[5-(2,6-difluoro-4-methoxyphenyl)-1-methyl-3-oxo-2-phenyl-2,3-dihydro-1H-pyrazol-4-yl]-4-(trifluoromethyl)benzamide]	8.00	5.54
COc1ccc(-c2c(NC(=O)c3ccc(OC(F)F)cc3)c(=O)n(-c3ccccc3)n2C)cc1 [Example 7, 4-(difluoromethoxy)-N-[5-(4-methoxyphenyl)-1-methyl-3-oxo-2-phenyl-2,3-dihydro-1H-pyrazol-4-yl]benzamide]	8.00	6.52
COc1cc(F)c(-c2c(NC(=O)c3ccc(Cl)cc3)c(=O)n(-c3ccccc3)n2C)c(F)c1 [Example 9, 4-chloro-N-[5-(2,6-difluoro-4-methoxyphenyl)-1-methyl-3-oxo-2-phenyl-2,3-dihydro-1H-pyrazol-4-yl]benzamide]	7.96	< 5.00
COc1cc(F)c(-c2c(NC(=O)c3ccc(OC(F)(F)F)cc3)c(=O)n(-c3ccc(F)cc3)n2C)c(F)c1 [Example 10, N-[5-(2,6-difluoro-4-methoxyphenyl)-2-(4-fluorophenyl)-1-methyl-3-oxo-2,3-dihydro-1H-pyrazol-4-yl]-4-(trifluoromethoxy)benzamide]	7.85	6.04
COc1cc(F)c(-c2c(NC(=O)c3ccc(OC(F)F)cc3)c(=O)n(-c3ccc(F)cc3)n2C)c(F)c1 [Example 12, N-[5-(2,6-difluoro-4-methoxyphenyl)-2-(4-fluorophenyl)-1-methyl-3-oxo-2,3-dihydro-1H-pyrazol-4-yl]-4-(difluoromethoxy)benzamide]	7.77	5.80
COc1cc(F)c(-c2c(NC(=O)c3ccc(OC(F)F)cc3)c(=O)n(C3CC3)n2C)c(F)c1 [Example 13, N-[2-cyclopropyl-5-(2,6-difluoro-4-methoxyphenyl)-1-methyl-3-oxo-2,3-dihydro-1H-pyrazol-4-yl]-4-(difluoromethoxy)benzamide]	7.66	5.62
COc1cc(F)c(-c2c(NC(=O)c3ccc(OC(F)F)cc3)c(=O)n(-c3cc(F)ccc3C)n2C)c(F)c1 [Example 14, N-[5-(2,6-difluoro-4-methoxyphenyl)-2-(5-fluoro-2-methylphenyl)-1-methyl-3-oxo-2,3-dihydro-1H-pyrazol-4-yl]-4-(difluoromethoxy)benzamide]	7.64	< 5.00
COc1cc(F)c(-c2c(NC(=O)c3ccc(Cl)cc3)c(=O)n(-c3ccc(F)cc3)n2C)c(F)c1 [Example 15, 4-chloro-N-[5-(2,6-difluoro-4-methoxyphenyl)-2-(4-fluorophenyl)-1-methyl-3-oxo-2,3-dihydro-1H-pyrazol-4-yl]benzamide]	7.52	< 5.00
COc1cc(F)c(-c2c(NC(=O)c3ccc(C4CC4)cc3)c(=O)n(-c3ccccc3)n2C)c(F)c1 [Example 16, 4-cyclopropyl-N-[5-(2,6-difluoro-4-methoxyphenyl)-1-methyl-3-oxo-2-phenyl-2,3-dihydro-1H-pyrazol-4-yl]benzamide]	7.52	< 5.00
COc1cc(F)c(-c2c(NC(=O)c3ccc(C(F)(F)F)cc3)c(=O)n(-c3ccc(F)cc3)n2C)c(F)c1 [Example 17, N-[5-(2,6-difluoro-4-methoxyphenyl)-2-(4-fluorophenyl)-1-methyl-3-oxo-2,3-dihydro-1H-pyrazol-4-yl]-4-(trifluoromethyl)benzamide]	7.29	5.77
COc1cc(F)c(-c2c(NC(=O)c3ccc(OC(F)F)cc3)c(=O)n(C(C)C)n2C)c(F)c1 [Example 18, N-[5-(2,6-difluoro-4-methoxyphenyl)-1-methyl-3-oxo-2-(propan-2-yl)-2,3-dihydro-1H-pyrazol-4-yl]-4-(difluoromethoxy)benzamide]	7.28	5.39
CCOC(=O)Cn1c(=O)c(NC(=O)c2ccc(OC(F)F)cc2)c(-c2c(F)cc(OC)cc2F)n1C [Example 21, ethyl 2-[3-(2,6-difluoro-4-methoxyphenyl)-4-[4-(difluoromethoxy)benzamido]-2-methyl-5-oxo-2,5-dihydro-1H-pyrazol-1-yl]acetate]	6.85	< 5.00
COc1cc(F)c(-c2c(NC(=O)c3ccc(-n4cccn4)cc3)c(=O)n(-c3ccccc3)n2C)c(F)c1 [Example 23, N-[5-(2,6-difluoro-4-methoxyphenyl)-1-methyl-3-oxo-2-phenyl-2,3-dihydro-1H-pyrazol-4-yl]-4-(1H-pyrazol-1-yl)benzamide]	6.82	5.52
COc1cc(F)c(-c2c(NC(=O)c3ccc(OC(F)(F)F)cn3)c(=O)n(-c3ccccc3)n2C)c(F)c1 [Example 24, N-[5-(2,6-difluoro-4-methoxyphenyl)-1-methyl-3-oxo-2-phenyl-2,3-dihydro-1H-pyrazol-4-yl]-5-(trifluoromethoxy)pyridine-2-carboxamide]	6.66	< 5.00
COc1cc(F)c(-c2c(NC(=O)c3ccc(Cl)nc3)c(=O)n(-c3ccccc3)n2C)c(F)c1 [Example 25, 6-chloro-N-[5-(2,6-difluoro-4-methoxyphenyl)-1-methyl-3-oxo-2-phenyl-2,3-dihydro-1H-pyrazol-4-yl]pyridin-3-carboxamide]	6.55	< 5.00
COc1cc(F)c(-c2c(NC(=O)c3ccc(OC(F)(F)F)cc3)c(=O)n(-c3c(F)cccc3F)n2C)c(F)c1 [Example 26, N-[5-(2,6-difluoro-4-methoxyphenyl)-2-(2,6-difluorophenyl)-1-methyl-3-oxo-2,3-dihydro-1H-pyrazol-4-yl]-4-(trifluoromethoxy)benzamide]	8.05	5.96
COc1cc(F)c(-c2c(NC(=O)c3ccc(OC(F)F)cc3)c(=O)n(-c3c(F)cccc3F)n2C)c(F)c1 [Example 27, N-[5-(2,6-difluoro-4-methoxyphenyl)-2-(2,6-difluorophenyl)-1-methyl-3-oxo-2,3-dihydro-1H-pyrazol-4-yl]-4-(difluoromethoxy)benzamide]	8.00	< 5.00
COc1cc(F)c(-c2c(NC(=O)c3ccc(OC(F)(F)F)cc3)c(=O)n(-c3ccccc3F)n2C)c(F)c1 [Example 28, N-[5-(2,6-difluoro-4-methoxyphenyl)-2-(2-fluorophenyl)-1-methyl-3-oxo-2,3-dihydro-1H-pyrazol-4-yl]-4-(trifluoromethoxy)benzamide]	8.00	5.60
COc1cc(F)c(-c2c(NC(=O)c3ccc(Cl)cc3)c(=O)n(-c3ccccc3F)n2C)c(F)c1 [Example 30, 4-chloro-4-N-[5-(2,6-difluoro-4-methoxyphenyl)-2-(2-fluorophenyl)-1-methyl-3-oxo-2,3-dihydro-1H-pyrazol-4-yl]benzamide]	7.74	< 5.00
COc1cc(F)c(-c2c(NC(=O)c3ccc(OC(F)(F)F)cc3)c(=O)n(-c3ncccc3F)n2C)c(F)c1 [Example 32, N-[5-(2,6-difluoro-4-methoxyphenyl)-2-(3-fluoropyridin-2-yl)-1-methyl-3-oxo-2,3-dihydro-1H-pyrazol-4-yl]-4-(trifluoromethoxy)benzamide]	8.10	5.19
